Measured values reported in ChEMBL document CHEMBL5230110, “FabI (enoyl acyl carrier protein reductase) - A potential broad spectrum therapeutic target and its inhibitors” (Eur J Med Chem, 2020).
≈ marks a conversion by molar mass, not a printed value.

Key:
[1] = system: Staphylococcus aureus; experiment: Bactericidal activity against methicillin-sensitive Staphylococcus aureus measured after 24 hrs by sub-culturing; type: functional
[2] = system: Bacillus anthracis; experiment: Antibacterial activity against Bacillus anthracis assessed as reduction in bacterial growth measured after 24 hrs by broth microdilution method; type: functional
[3] = system: Staphylococcus aureus; experiment: Antibacterial activity against methicillin resistant Staphylococcus aureus assessed as reduction in bacterial growth incubated for 12 hrs by microdilution method; type: functional
[4] = system: HeLa; experiment: Cytotoxicity against human HeLa cells assessed as inhibition of cell growth incubated for 48 hrs by CCK8 assay; type: functional, cell-based
[5] = system: Staphylococcus aureus; experiment: Bactericidal activity against methicillin-resistant Staphylococcus aureus measured after 24 hrs by sub-culturing; type: functional
[6] = Inhibition of Bacillus anthracis enoyl ACP reductase assessed as inhibition of bacterial growth
[7] = Cytotoxicity against mouse MH-S cells; type: functional, cell-based
[8] = target: T1, Enoyl-[acyl-carrier-protein] reductase [NADH] FabI (Escherichia coli K-12, UniProt P0AEK4); experiment: Inhibition of Escherichia coli FabI in the presence of NADH using crotonyl CoA as substrate by measuring NADH consumption rate
T1 sequence (P0AEK4 whole entry): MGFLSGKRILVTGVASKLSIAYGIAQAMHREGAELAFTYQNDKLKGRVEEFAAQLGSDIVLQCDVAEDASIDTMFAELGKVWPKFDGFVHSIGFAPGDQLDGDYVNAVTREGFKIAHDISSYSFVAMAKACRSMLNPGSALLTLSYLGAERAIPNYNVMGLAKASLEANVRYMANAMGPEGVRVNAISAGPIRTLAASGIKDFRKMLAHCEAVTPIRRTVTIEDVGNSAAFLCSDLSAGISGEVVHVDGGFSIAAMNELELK

[9] = system: Staphylococcus aureus; experiment: Antibacterial activity in Swiss albino mouse model infected with Methicillin- sensitive Staphylococcus aureus ATCC 29213 assessed as reduction in bacterial growth; type: functional
[10] = system: Staphylococcus aureus; experiment: Antibacterial activity in Swiss albino mouse model infected with Methicillin-resistant Staphylococcus aureus NRS 382 assessed as reduction in bacterial growth; type: functional
[11] = system: Staphylococcus aureus; experiment: Antibacterial activity against methicillin-susceptible Staphylococcus aureus assessed as reduction in bacterial growth; type: functional
[12] = target: T1, Enoyl-[acyl-carrier-protein] reductase [NADH] FabI; experiment: Inhibition of Escherichia coli DH5alpha FabI in the presence of NADH using crotonyl CoA as substrate by measuring NADH consumption rate
[13] = target: T2, Enoyl-[acyl-carrier-protein] reductase [NADPH] FabI (Staphylococcus aureus, UniProt Q6GI75); experiment: Inhibition of Staphylococcus aureus FabI in the presence of NADH using crotonyl CoA as substrate by measuring NADH consumption rate
T2 sequence (Q6GI75 whole entry): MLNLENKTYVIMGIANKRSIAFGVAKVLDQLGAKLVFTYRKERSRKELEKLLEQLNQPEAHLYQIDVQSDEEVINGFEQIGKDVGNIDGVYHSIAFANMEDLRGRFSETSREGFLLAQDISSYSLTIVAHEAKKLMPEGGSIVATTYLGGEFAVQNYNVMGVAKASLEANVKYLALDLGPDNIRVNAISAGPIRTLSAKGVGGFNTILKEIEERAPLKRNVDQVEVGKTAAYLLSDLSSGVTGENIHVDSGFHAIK

[14] = target: T3, Enoyl-[acyl-carrier-protein] reductase [NADH] FabI (Haemophilus influenzae (strain ATCC 51907 / DSM 11121 / KW20 / Rd), UniProt P44432); experiment: Inhibition of Haemophilus influenzae ATCC 51907 FabI assessed as by measuring NADH consumption rate
T3 sequence (P44432 whole entry): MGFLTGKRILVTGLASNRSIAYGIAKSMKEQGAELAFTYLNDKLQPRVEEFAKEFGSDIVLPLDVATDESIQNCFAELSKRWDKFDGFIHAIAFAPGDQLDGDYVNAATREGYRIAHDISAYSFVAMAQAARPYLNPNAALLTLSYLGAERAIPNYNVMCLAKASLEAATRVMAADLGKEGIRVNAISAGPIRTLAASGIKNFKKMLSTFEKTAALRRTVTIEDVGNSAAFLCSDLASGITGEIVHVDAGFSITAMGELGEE

[15] = system: Staphylococcus epidermidis; experiment: Antibacterial activity against Methicillin-resistant Staphylococcus epidermidis ATCC 35984 assessed as reduction in bacterial growth; type: functional
[16] = system: Staphylococcus aureus; experiment: In vivo antibacterial activity against methicillin-resistant Staphylococcus aureus infected in murine assessed as reduction in bacterial burden; type: functional
[17] = system: Mycobacterium tuberculosis; experiment: Antimycobacterial activity against Mycobacterium tuberculosis ATCC 25618 extracellular forms assessed as inhibition of microbial growth; type: functional
[18] = system: Staphylococcus aureus; experiment: Antibacterial activity against Staphylococcus aureus assessed as bacterial growth inhibition; type: functional
[19] = system: Pseudomonas aeruginosa; experiment: Antibacterial activity against Pseudomonas aeruginosa assessed as bacterial growth inhibition; type: functional
[20] = system: Mycobacterium tuberculosis; experiment: Antimycobacterial activity against Mycobacterium tuberculosis H37Rv assessed as reduction in bacterial growth incubated for 7 days by dye based assay; type: functional; conditions: 168 h, time 7 day
[21] = system: Escherichia coli; experiment: Antibacterial activity against Escherichia coli assessed as bacterial growth inhibition; type: functional
[22] = Cytotoxicity against human HepG2 cells assessed as reduction in cell viability […] incubated for 48 hrs by MTT assay; type: toxicity, cell-based
[23] = Cytotoxicity against African green monkey Vero cells assessed as reduction in cell viability by coulter counter method; type: toxicity, cell-based; conditions: chlorocebus sabaeus
[24] = Selectivity index, ratio of CC50 for african green monkey Vero cells to CC50 for human HepG2 cells; type: toxicity; conditions: Vero cells and HepG2 cells, read-out: Selectivity Index
[25] = target: T4, Enoyl-[acyl-carrier-protein] reductase [NADH] (Mycobacterium tuberculosis, UniProt P9WGR1); experiment: Inhibition of Mycobacterial tuberculosis ATCC 25618 FabI assessed as measuring NADH consumption rate
T4 sequence (P9WGR1 whole entry): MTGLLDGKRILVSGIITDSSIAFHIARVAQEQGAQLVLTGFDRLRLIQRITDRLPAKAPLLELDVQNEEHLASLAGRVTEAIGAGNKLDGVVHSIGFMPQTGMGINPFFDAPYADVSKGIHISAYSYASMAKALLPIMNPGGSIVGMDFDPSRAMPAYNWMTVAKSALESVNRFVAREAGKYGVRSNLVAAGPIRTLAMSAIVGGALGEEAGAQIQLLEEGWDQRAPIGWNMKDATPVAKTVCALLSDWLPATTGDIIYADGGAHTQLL

[26] = system: Staphylococcus aureus; experiment: Antibacterial activity against methicillin-sensitive Staphylococcus aureus assessed as reduction in bacterial growth incubated for 12 hrs by microdilution method; type: functional
[27] = system: Escherichia coli; experiment: Antibacterial activity against Escherichia coli BAA 2340 assessed as reduction in microbial growth inhibition; type: functional
[28] = system: Staphylococcus epidermidis; experiment: Antibacterial activity against methicillin-sensitive Staphylococcus epidermidis assessed as reduction in bacterial growth incubated for 12 hrs by microdilution method; type: functional
[29] = system: Staphylococcus epidermidis; experiment: Antibacterial activity against methicillin-resistant Staphylococcus epidermidis assessed as reduction in bacterial growth incubated for 12 hrs by microdilution method; type: functional
[30] = system: Staphylococcus aureus; experiment: Antibacterial activity against Staphylococcus aureus ATCC 29213 assessed as bacterial growth inhibition incubated for 24 hrs by broth dilution method; type: functional
[31] = target: T2, Enoyl-[acyl-carrier-protein] reductase [NADPH] FabI; experiment: Inhibition of Staphylococcus aureus ATCC 29213 FabI in the presence of NADH using crotonyl CoA as substrate by measuring NADH consumption rate
[32] = system: Klebsiella pneumoniae; experiment: Antibacterial activity against Klebsiella pneumoniae BAA-1705; type: functional
[33] = target: T2, Enoyl-[acyl-carrier-protein] reductase [NADPH] FabI; experiment: Inhibition of Staphylococcus aureus FabI assessed as inhibition of bacterial growth by measuring the NADH consumption rate at 20 mins
[34] = system: Acinetobacter baumannii; experiment: Antibacterial activity against Acinetobacter baumannii W41979; type: functional
[35] = target: T2, Enoyl-[acyl-carrier-protein] reductase [NADPH] FabI; experiment: Inhibition of Staphylococcus aureus FabI assessed as inhibition at 10 uM
[36] = system: Staphylococcus aureus; experiment: Antibacterial activity against Staphylococcus aureus assessed as inhibition of bacterial growth measured after 24 hrs; type: functional
[37] = system: Escherichia coli; experiment: Antibacterial activity against Escherichia coli ATCC 35218 assessed as reduction in microbial growth inhibition; type: functional
[38] = system: Staphylococcus aureus; experiment: Antibacterial activity against Methicillin-resistant Staphylococcus aureus 5749 assessed as reduction in microbial growth inhibition; type: functional
[39] = system: Staphylococcus aureus; experiment: Antibacterial activity against Staphylococcus aureus ATCC 43300 assessed as reduction in microbial growth inhibition in presence of ceftazidime; type: functional
[40] = system: Staphylococcus aureus; experiment: Antibacterial activity against […] Staphylococcus aureus ATCC 29213 assessed as reduction in microbial growth inhibition; type: functional
[41] = Cytotoxicity against African green monkey Vero cells assessed as reduction in cell viability measured after 72 hrs by coulter counter method; type: toxicity, cell-based; conditions: chlorocebus sabaeus
[42] = system: Staphylococcus aureus; experiment: Antibacterial activity against Staphylococcus aureus ATCC 43300 assessed as reduction in microbial growth inhibition in presence of carbenicillin; type: functional
[43] = system: Staphylococcus aureus; experiment: Antibacterial activity against Staphylococcus aureus ATCC 43300 assessed as reduction in microbial growth inhibition in presence of chloramphenicol; type: functional
[44] = system: Staphylococcus aureus; experiment: Antibacterial activity against Methicillin-resistant Staphylococcus aureus 5912 assessed as reduction in microbial growth inhibition; type: functional
[45] = system: Staphylococcus aureus; experiment: Antibacterial activity against Staphylococcus aureus ATCC 43300 assessed as reduction in microbial growth inhibition; type: functional
[46] = system: Staphylococcus aureus; experiment: Antibacterial activity against Staphylococcus aureus ATCC 29213 assessed as reduction in microbial growth inhibition; type: functional
[47] = system: Escherichia coli; experiment: Antibacterial activity against Escherichia coli assessed as bacterial growth inhibition at 50 uM measured after 24 hrs by 96-wellplate reader assay method; type: functional
[48] = system: Mycobacterium tuberculosis; experiment: Antimycobacterial activity against Mycobacterium tuberculosis H37Rv after 14 days; type: functional; conditions: 336 h, time 14 day
[49] = system: Plasmodium falciparum; experiment: Antimalarial activity against Plasmodium falciparum by LDH assay; type: functional, organism-based
[50] = Inhibition of Plasmodium falciparum NF54 HDAC using extract measured after 60 mins by fluorescence assay; conditions: read-out: IC50

## CCCc1ccc(Oc2ccc([N+](=O)[O-])cc2Cl)c(O)c1
[1]
  MBC: 2.9 µg/mL (≈ 9.42 µM)
[2]
  MIC: 1.9 µg/mL (≈ 6.17 µM)
[3]
  MIC: 0.3 µg/mL (≈ 0.975 µM)
[4]
  EC50: 41.1 µg/mL (≈ 134 µM)
[5]
  MBC: 1.2 µg/mL (≈ 3.9 µM)
[6]
  IC50: 500 nM
[7]
  EC50: 22.6 µg/mL (≈ 73.4 µM)

## CCc1cc(O)c(Oc2ccc(C(N)=O)cc2F)cc1F
[8]
  IC50: 58 nM
[3]
  MIC90: 0.12 µg/mL (≈ 0.409 µM)
[9]
  ED50: 40 mg/kg/day
[10]
  ED50: 19.3 mg/kg/day
[11]
  MIC90: 0.03 µg/mL (≈ 0.102 µM)
[12]
  IC50: 58 nM

## Cc1c(CN(C)C(=O)/C=C/c2cnc3c(c2)CCC(=O)N3)c2ccccc2n1C
[13]
  IC50: 130 nM
[14]
  IC50: 390 nM

## Cc1c(C2CN(C(=O)/C=C/c3cnc4c(c3)CCC(=O)N4)C2)oc2ccccc12
[15]
  MIC: 0.5 µg/mL (≈ 1.29 µM)
[16]
  ED50: 0.9 mg/kg

## CC1(C)CCC(Cc2cc(O)c(-c3ccccc3)c(=O)[nH]2)CC1
[17]
  MIC: 0.05 µM

## Cc1ccc(C2=NCC(c3ccc(Oc4ccccc4)c(O)c3)C2)cc1 (configuration not stated)
[18]
  MIC: 9 µM (≈ 3.09 µg/mL)
[19]
  MIC: 18 µM (≈ 6.18 µg/mL)
[20]
  MIC: 18 µM (≈ 6.18 µg/mL)
[21]
  MIC: 18.2 µM (≈ 6.26 µg/mL)
[22]
  CC50 at 48 h: > 596000 nM
[23]
  CC50: > 646000 nM
[24]
  selectivity ratio: > 10

## C=C1C(=O)OC[C@H]1C/C=C(\C)CC(=O)C=C(C)C
[25]
  IC50: 18100 nM

## Cc1c(CN(C)C(=O)/C=C/c2cnc3c(c2)CCC(=O)N3)oc2ccccc12 [AFN-1252]
[26]
  MIC90: ≤ 0.008 µg/mL
[27]
  MIC: > 32 µg/mL
[28]
  MIC90: 0.03 µg/mL (≈ 0.0799 µM)
[29]
  MIC90: ≤ 0.008 µg/mL
[30]
  MIC: 0.008 µg/mL (≈ 0.0213 µM)
[31]
  IC50: 9600 nM
[32]
  MIC: > 32 µg/mL
[33]
  IC50: 14 nM
[34]
  MIC: > 32 µg/mL

## CC(C)=CCc1c(O)ccc(C(=O)[C@H]2[C@@H](c3c(O)cc(-c4cc5ccc(O)cc5o4)cc3O)C=C(C)C[C@@H]2c2ccc(O)cc2O)c1O [CHALCOMORACIN]
[35]
  IC50: 5500 nM
[36]
  MIC: 4 µg/mL (≈ 6.17 µM)

## C[C@@H](Oc1cc(-c2cnn(C3CCNCC3)c2)cnc1N)c1c(Cl)ccc(F)c1Cl [CRIZOTINIB]
[37]
  MIC: 250 µM
[38]
  MIC: 125 µM
[39]
  MIC: 4 µg/mL
[40]
  MIC: 31.2 µM
[41]
  CC50 at 72 h: 4230 nM
[42]
  MIC: 2 µg/mL
[43]
  MIC: 2 µg/mL
[44]
  MIC: 15.6 µM
[45]
  MIC: 7.03 µg/mL
[46]
  MIC: 125 µM

## Oc1cc(Cl)ccc1Oc1ccc(Cl)cc1Cl [TRICLOSAN]
[47]
  MIC: 0.3 µg/mL (≈ 1.04 µM)
[48]
  MIC: 12.5 µg/mL (≈ 43.2 µM)
[49]
  EC50: 0.8 µg/mL (≈ 2.76 µM)
[36]
  MIC: 0.016 µg/mL (≈ 0.0553 µM)
[50]
  IC50: 73 nM
